The source of these data is ChEMBL document CHEMBL5465560, “Selectivity Literature for EUbOPEN Chemogenomic Library” (2024).

Assay [1] has as its target Receptor tyrosine-protein kinase erbB-3 (Homo sapiens) (UniProt P21860). Put plainly: Selectivity interaction (Ambit KINOMEscan and KiNATiv profiling in Jurkat cells) EUB0000090b ERBB3. In kind it is cell-based. The conditions noted are these: at 1 µM.
The target of assay [2] is 5'-AMP-activated protein kinase catalytic subunit alpha-1 (Homo sapiens, UniProt Q13131). Put plainly: Selectivity interaction (KinomeScan (DiscoverX)) EUB0000092b PRKAA1. The conditions noted are these: at 10 µM.
Sequence of 5'-AMP-activated protein kinase catalytic subunit alpha-1 (Q13131 whole entry, looked up): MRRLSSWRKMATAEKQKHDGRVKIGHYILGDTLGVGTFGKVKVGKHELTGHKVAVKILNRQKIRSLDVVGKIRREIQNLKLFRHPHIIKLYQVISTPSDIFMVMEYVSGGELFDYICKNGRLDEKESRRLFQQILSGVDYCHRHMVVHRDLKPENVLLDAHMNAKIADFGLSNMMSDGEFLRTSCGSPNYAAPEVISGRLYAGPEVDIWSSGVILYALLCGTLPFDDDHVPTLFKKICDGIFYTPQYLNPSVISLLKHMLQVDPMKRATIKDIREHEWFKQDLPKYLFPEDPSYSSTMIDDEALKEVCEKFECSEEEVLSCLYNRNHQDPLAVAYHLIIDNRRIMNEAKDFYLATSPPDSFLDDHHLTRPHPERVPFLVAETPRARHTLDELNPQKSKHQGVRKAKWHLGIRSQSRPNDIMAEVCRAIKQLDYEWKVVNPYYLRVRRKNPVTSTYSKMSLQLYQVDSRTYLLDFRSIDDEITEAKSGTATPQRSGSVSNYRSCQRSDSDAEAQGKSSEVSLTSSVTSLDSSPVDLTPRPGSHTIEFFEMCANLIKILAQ
The target in assay [3] is DNA (cytosine-5)-methyltransferase 3B (Homo sapiens) (UniProt Q9UBC3). Put plainly: Selectivity interaction (Methyltransferase screen (Scintillation proximity assays)) EUB0000255b DNMT3B. (In a scintillation proximity assay essentially only radioactivity close to the scintillant gives light.)
Assay [4] has as its target T1, Cyclin-dependent kinase-like 2 (Homo sapiens) (UniProt Q92772).
T1 sequence (whole entry): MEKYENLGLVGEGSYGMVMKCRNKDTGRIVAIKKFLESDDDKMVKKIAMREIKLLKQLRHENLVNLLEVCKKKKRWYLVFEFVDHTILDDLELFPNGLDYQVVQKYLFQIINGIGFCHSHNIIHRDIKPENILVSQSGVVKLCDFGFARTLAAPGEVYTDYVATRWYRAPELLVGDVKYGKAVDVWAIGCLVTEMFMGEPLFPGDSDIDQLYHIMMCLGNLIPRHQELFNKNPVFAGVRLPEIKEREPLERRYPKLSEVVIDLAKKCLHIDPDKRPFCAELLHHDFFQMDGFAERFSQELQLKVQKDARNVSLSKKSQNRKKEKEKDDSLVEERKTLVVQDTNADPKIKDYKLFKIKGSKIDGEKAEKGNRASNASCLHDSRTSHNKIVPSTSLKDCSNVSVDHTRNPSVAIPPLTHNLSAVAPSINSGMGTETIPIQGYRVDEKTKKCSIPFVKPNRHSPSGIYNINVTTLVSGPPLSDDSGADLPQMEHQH
Briefly: Selectivity interaction (KinomeScan (DiscoverX)) EUB0000655a CDKL2. As to conditions: at 10 µM.

For assay [5], the target named is T2, Ephrin type-A receptor 8 (Homo sapiens) (UniProt P29322).
T2 sequence (whole entry): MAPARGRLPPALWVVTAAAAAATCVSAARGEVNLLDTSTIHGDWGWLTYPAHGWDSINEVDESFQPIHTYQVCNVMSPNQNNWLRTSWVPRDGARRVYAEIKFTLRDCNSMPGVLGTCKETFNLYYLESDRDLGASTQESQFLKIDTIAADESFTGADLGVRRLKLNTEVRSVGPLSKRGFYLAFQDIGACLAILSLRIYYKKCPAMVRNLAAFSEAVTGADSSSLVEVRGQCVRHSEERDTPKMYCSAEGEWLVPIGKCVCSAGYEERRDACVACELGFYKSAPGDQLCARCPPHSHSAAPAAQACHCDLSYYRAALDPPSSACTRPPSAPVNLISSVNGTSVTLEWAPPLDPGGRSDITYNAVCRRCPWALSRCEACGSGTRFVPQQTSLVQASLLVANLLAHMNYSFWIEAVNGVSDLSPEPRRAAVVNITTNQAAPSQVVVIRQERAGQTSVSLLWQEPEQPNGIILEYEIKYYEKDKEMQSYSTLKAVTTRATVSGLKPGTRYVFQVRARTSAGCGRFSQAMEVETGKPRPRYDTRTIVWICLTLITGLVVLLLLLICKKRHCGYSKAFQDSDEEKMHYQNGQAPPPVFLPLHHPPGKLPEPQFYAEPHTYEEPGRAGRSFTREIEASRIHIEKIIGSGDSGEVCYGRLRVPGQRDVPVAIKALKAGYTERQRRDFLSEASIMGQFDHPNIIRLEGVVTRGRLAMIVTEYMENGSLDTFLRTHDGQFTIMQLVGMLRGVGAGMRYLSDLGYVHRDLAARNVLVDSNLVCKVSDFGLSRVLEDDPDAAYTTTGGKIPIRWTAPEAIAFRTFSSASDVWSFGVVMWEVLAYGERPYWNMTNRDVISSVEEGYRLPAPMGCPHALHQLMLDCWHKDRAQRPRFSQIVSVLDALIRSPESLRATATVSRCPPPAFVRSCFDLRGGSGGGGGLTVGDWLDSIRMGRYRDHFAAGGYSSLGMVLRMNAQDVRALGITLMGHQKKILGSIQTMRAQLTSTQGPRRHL
Briefly: Selectivity interaction (KinomeScan (DiscoverX)) EUB0000045b EPHA8.

Assay [6] concerns the target Epithelial discoidin domain-containing receptor 1 (Homo sapiens) (UniProt Q08345). Briefly: Selectivity interaction (KinomeScan (DiscoverX)) EUB0000666a DDR1. The conditions noted are these: at 10 µM.
For assay [7], the target named is Casein kinase II subunit alpha' (Homo sapiens) (UniProt P19784). Put plainly: Selectivity interaction (SelectScreen profiling (Invitrogen)) EUB0000607a CSNK2A2. The conditions noted are these: at 2 µM.
Sequence of Casein kinase II subunit alpha' (Homo sapiens) (P19784 whole entry, looked up): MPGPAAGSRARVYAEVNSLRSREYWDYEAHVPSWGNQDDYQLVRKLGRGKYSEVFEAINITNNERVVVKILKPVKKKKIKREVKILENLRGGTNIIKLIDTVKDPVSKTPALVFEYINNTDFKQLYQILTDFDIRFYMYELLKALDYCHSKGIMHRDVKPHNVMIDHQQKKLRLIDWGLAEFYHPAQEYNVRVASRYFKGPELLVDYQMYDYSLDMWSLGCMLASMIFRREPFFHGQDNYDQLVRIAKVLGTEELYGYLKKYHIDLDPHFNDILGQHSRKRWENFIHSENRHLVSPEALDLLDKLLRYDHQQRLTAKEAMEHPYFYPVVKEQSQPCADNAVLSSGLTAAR
The target in assay [8] is T3, Tyrosine-protein kinase ZAP-70 (Homo sapiens) (UniProt P43403).
T3 sequence (whole entry): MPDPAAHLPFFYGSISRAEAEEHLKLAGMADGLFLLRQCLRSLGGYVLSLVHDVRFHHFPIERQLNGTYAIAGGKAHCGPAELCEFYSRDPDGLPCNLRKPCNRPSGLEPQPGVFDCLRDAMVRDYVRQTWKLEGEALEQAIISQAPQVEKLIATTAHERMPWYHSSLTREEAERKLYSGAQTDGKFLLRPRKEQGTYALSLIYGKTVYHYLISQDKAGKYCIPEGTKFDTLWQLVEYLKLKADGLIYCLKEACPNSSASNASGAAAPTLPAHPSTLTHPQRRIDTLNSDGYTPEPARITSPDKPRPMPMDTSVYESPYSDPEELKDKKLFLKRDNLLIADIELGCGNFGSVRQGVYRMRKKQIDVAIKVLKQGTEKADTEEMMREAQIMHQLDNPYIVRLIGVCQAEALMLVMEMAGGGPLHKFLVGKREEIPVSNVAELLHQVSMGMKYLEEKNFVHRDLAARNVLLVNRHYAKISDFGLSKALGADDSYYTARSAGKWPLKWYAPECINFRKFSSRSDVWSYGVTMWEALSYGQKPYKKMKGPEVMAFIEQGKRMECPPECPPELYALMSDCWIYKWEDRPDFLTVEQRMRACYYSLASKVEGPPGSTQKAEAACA
Put plainly: Selectivity interaction (KinomeScan (DiscoverX)) EUB0000229b ZAP70. As to conditions: at 10 µM.

Sequence of Receptor tyrosine-protein kinase erbB-3 (Homo sapiens) (P21860 whole entry): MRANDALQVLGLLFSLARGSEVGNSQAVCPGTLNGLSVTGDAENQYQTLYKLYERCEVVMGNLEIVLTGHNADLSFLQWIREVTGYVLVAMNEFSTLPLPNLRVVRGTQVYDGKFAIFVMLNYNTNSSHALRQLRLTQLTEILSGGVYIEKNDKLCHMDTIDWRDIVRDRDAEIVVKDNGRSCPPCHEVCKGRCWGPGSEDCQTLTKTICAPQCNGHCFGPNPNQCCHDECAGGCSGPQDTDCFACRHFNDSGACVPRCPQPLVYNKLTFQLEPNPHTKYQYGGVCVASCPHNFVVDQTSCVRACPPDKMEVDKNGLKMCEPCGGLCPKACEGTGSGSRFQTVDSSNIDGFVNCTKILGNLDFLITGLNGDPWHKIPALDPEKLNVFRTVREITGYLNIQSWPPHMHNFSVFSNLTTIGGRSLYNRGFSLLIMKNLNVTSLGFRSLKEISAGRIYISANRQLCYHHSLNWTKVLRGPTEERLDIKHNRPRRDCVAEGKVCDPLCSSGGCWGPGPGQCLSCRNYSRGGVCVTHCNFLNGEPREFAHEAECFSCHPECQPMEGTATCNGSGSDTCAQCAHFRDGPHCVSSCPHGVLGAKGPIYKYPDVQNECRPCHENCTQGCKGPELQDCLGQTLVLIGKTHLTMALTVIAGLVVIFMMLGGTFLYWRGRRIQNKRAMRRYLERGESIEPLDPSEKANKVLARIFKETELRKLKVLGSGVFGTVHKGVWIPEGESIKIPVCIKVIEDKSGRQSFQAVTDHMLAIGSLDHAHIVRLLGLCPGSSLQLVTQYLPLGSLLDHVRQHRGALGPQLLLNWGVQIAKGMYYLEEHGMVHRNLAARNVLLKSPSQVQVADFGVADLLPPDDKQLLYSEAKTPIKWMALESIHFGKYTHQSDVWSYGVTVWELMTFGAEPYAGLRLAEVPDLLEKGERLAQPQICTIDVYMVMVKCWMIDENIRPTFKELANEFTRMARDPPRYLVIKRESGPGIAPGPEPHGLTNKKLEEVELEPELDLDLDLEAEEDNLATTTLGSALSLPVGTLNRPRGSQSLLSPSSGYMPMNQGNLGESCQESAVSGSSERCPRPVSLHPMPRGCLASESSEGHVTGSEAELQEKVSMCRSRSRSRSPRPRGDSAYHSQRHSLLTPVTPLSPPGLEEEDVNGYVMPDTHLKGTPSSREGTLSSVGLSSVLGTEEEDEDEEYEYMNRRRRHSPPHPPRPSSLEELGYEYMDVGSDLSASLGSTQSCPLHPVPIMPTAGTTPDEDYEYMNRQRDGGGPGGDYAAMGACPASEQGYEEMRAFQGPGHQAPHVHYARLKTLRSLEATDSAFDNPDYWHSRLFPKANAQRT
Sequence of Epithelial discoidin domain-containing receptor 1 (Homo sapiens) (Q08345 whole entry, the tested form may be a part): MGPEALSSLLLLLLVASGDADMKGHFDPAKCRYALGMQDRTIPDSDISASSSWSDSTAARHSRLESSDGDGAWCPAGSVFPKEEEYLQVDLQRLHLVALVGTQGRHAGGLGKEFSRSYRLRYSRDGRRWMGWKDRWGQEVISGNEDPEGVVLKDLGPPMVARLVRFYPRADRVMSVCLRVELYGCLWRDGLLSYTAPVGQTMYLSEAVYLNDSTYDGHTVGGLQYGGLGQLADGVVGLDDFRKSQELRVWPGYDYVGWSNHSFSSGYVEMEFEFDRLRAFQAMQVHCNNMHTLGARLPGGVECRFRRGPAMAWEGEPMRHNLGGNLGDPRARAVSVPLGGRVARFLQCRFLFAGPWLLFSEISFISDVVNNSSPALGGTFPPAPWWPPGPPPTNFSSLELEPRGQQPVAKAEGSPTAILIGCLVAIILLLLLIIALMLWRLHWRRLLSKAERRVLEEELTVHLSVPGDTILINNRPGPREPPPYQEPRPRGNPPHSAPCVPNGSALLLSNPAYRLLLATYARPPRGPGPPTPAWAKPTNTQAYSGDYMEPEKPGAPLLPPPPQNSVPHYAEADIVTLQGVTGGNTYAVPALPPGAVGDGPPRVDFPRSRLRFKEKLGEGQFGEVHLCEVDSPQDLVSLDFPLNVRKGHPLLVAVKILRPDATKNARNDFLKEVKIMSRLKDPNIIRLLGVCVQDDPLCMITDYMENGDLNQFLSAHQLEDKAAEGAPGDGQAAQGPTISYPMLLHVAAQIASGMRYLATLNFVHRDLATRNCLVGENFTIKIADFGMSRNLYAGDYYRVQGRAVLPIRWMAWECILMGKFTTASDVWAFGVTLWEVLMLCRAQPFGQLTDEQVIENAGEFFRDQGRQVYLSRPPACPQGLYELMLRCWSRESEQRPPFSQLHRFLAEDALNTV

The compound `CN(C)C/C=C/C(=O)Nc1ccc(C(=O)N2CCCC(Nc3ncc(Cl)c(-c4c[nH]c5ccccc45)n3)C2)cc1` (stereo not given) returned a % of control in assay [1] of 98%.

In turn, `CCC(=O)N1CCN(c2ccc(-n3c(=O)ccc4cnc5ccc(-c6cnc7ccccc7c6)cc5c43)cc2C(F)(F)F)CC1` came in with a % of control in assay [2] of 91%.

In the case of `COCCN1CCC(c2cc(CN(C)C(=O)c3cccc(Oc4ccccc4)c3)ccn2)CC1`, the % activity is more than 95% in assay [3] (at 1 µM) and more than 85% in assay [3] (at 10 µM).

Turning to `CN(C)CCOc1ccc(-c2nc(-c3ccncc3)c(-c3ccc4c(c3)CC/C4=N\O)[nH]2)cc1`, the % of control in assay [4] came out at 100%.

For `C=CC(=O)Nc1cc(-n2c(=O)ccc3cnc4ccc(-c5ccc(NS(C)(=O)=O)cc5)cc4c32)ccc1C`, the values for the % of control in assay [5] (at 1 µM) and in assay [5] (at 10 µM) were 100% and 76%, respectively.

In turn, `O=C(NOC[C@H](O)CO)c1ccc(F)c(F)c1Nc1ccc(I)cc1F` displayed a % of control in assay [6] of 50%.

Turning to `CNC(=O)Nc1ccc(-c2nc(N3CC4CCC(C3)O4)c3cnn(C4CCC5(CC4)OCCO5)c3n2)cc1`, the % of inhibition in assay [7] was 3%.

`COc1cc(N(C)c2ccnc3ccc(C(F)(F)F)cc23)cc(OC)c1OC` gave a % binding in assay [8] of 100%.
